Test results from patent publication US11446287B2, “Compounds and methods for EP300 or CBP modulation and indications therefor” (Opna Immuno-Oncology SA, priority 2019, dated 2022).

molecular target: T1, Recombinant human CBP containing the bromodomain (CBP-BD (1043-1159)) (Homo sapiens, UniProt Q92793); experiment: CBP Alphascreen binding assay; conditions: read-out: CREBBP (CBP) IC50
T1 construct: Recombinant human CBP bromodomain (CBP-BD (1043-1159)); made in house; host or cells: E. coli BL21-CodonPlus (DE3), modified pET vector
T1 sequence (Q92793 1081-1197): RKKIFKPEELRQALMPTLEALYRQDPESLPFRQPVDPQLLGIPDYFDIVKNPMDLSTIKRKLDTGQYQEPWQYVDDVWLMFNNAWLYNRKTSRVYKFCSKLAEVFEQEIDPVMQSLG
How it was run: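 Buffer: 50 mM HEPES pH 7.5, 50 mM NaCl, 0.01% BSA, 0.01% Triton X-100, 2 mM DTT. The signal was normalised to plate controls and fitted with a four-parameter curve to give IC50.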

| SMILES | IC50 [nM] |
| --- | --- |
| COc1nc(C(=O)O)ccc1-c1cn(C2CCOCC2)c2ncc(-c3c(C)noc3C)cc12 [P-0368, 5-(5-(3,5-dimethylisoxazol-4-yl)-1-(tetrahydro-2H-pyran-4-yl)-1H-pyrrolo[2,3-b]pyridin-3-yl)-6-methoxypicolinic acid] | 0.1 to 1000 |
| Cc1noc(C)c1-c1cnc2c(c1)c(-c1c(F)cc(C(=O)O)cc1OC(C)C)cn2C(C1CC1)C1CC1 [P-0369, 4-(1-(dicyclopropylmethyl)-5-(3,5-dimethylisoxazol-4-yl)-1H-pyrrolo[2,3-b]pyridin-3-yl)-3-fluoro-5-isopropoxybenzoic acid] | 0.1 to 1000 |
| CCOc1cc(C(=O)O)cc(Cl)c1-c1cn(C(C2CC2)C2CC2)c2ncc(-c3c(C)noc3C)cc12 [P-0370, 3-chloro-4-(1-(dicyclopropylmethyl)-5-(3,5-dimethylisoxazol-4-yl)-1H-pyrrolo[2,3-b]pyridin-3-yl)-5-ethoxybenzoic acid] | 0.1 to 1000 |
| CCOc1cc(C(=O)O)cc(Cl)c1-c1cn(C2CCOCC2)c2ncc(-c3c(C)noc3C)cc12 [P-0371, 3-chloro-4-(5-(3,5-dimethylisoxazol-4-yl)-1-(tetrahydro-2H-pyran-4-yl)-1H-pyrrolo[2,3-b]pyridin-3-yl)-5-ethoxybenzoic acid] | 0.1 to 1000 |
| Cc1noc(C)c1-c1cnc2c(c1)c(-c1c(Cl)cc(C(=O)O)cc1OC(C)C)cn2C1CCOCC1 [P-0372, 3-chloro-4-(5-(3,5-dimethylisoxazol-4-yl)-1-(tetrahydro-2H-pyran-4-yl)-1H-pyrrolo[2,3-b]pyridin-3-yl)-5-isopropoxybenzoic acid] | 0.1 to 1000 |
| CCOc1cc(C(=O)O)nc(OCC)c1-c1cn(C2CCOCC2)c2ncc(-c3c(C)noc3C)cc12 [P-0373, 5-(5-(3,5-dimethylisoxazol-4-yl)-1-(tetrahydro-2H-pyran-4-yl)-1H-pyrrolo[2,3-b]pyridin-3-yl)-4,6-diethoxypicolinic acid] | 0.1 to 1000 |
| CCOc1cc(C(=O)O)c(F)c(OCC)c1-c1cn(C2CCOCC2)c2ncc(-c3c(C)noc3C)cc12 [P-0374, 4-(5-(3,5-dimethylisoxazol-4-yl)-1-(tetrahydro-2H-pyran-4-yl)-1H-pyrrolo[2,3-b]pyridin-3-yl)-3,5-diethoxy-2-fluorobenzoic acid] | 0.1 to 1000 |
| CCOc1cc(C(=O)O)c(F)cc1-c1cn(C2CCOCC2)c2ncc(-c3c(C)noc3C)cc12 [P-0375, 4-(5-(3,5-dimethylisoxazol-4-yl)-1-(tetrahydro-2H-pyran-4-yl)-1H-pyrrolo[2,3-b]pyridin-3-yl)-5-ethoxy-2-fluorobenzoic acid] | 0.1 to 1000 |
| CCOc1nc(C(=O)O)ccc1-c1cn(C2CCOCC2)c2ncc(-c3c(C)noc3C)cc12 [P-0376, 5-(5-(3,5-dimethylisoxazol-4-yl)-1-(tetrahydro-2H-pyran-4-yl)-1H-pyrrolo[2,3-b]pyridin-3-yl)-6-ethoxypicolinic acid] | 0.1 to 1000 |
| CCOc1cc(C(=O)O)c(F)cc1-c1cn(-c2ccccc2F)c2ncc(-c3c(C)noc3C)cc12 [P-0377, 4-(5-(3,5-dimethylisoxazol-4-yl)-1-(2-fluorophenyl)-1H-pyrrolo[2,3-b]pyridin-3-yl)-5-ethoxy-2-fluorobenzoic acid] | 0.1 to 1000 |
| Cc1noc(C)c1-c1cnc2c(c1)c(-c1ccc(C(=O)O)cc1OC(F)(F)F)cn2C1CCC1 [P-0378, 4-(1-cyclobutyl-5-(3,5-dimethylisoxazol-4-yl)-1H-pyrrolo[2,3-b]pyridin-3-yl)-3-(trifluoromethoxy)benzoic acid] | 0.1 to 1000 |
| Cc1noc(C)c1-c1cnc2c(c1)c(-c1ccc(C(=O)O)cc1OC1CC1)cn2C1CCOCC1 [P-0379, 3-cyclopropoxy-4-(5-(3,5-dimethylisoxazol-4-yl)-1-(tetrahydro-2H-pyran-4-yl)-1H-pyrrolo[2,3-b]pyridin-3-yl)benzoic acid] | 0.1 to 1000 |
| Cc1noc(C)c1-c1cnc2c(c1)c(-c1c(Cl)cc(C(=O)O)cc1OC(F)(F)F)cn2C(C1CCC1)C1CCC1 [P-0380, 3-chloro-4-(1-(dicyclobutylmethyl)-5-(3,5-dimethylisoxazol-4-yl)-1H-pyrrolo[2,3-b]pyridin-3-yl)-5-(trifluoromethoxy)benzoic acid] | 0.1 to 1000 |
| Cc1noc(C)c1-c1cnc2c(c1)c(-c1c(Cl)cc(C(=O)O)cc1OC1CC1)cn2C1CCOCC1 [P-0381, 3-chloro-5-cyclopropoxy-4-(5-(3,5-dimethylisoxazol-4-yl)-1-(tetrahydro-2H-pyran-4-yl)-1H-pyrrolo[2,3-b]pyridin-3-yl)benzoic acid] | 0.1 to 1000 |
| Cc1noc(C)c1-c1cnc2c(c1)c(-c1ccc(C(=O)O)cc1OC(F)(F)F)cn2C1CCCC1 [P-0382, 4-(1-cyclopentyl-5-(3,5-dimethylisoxazol-4-yl)-1H-pyrrolo[2,3-b]pyridin-3-yl)-3-(trifluoromethoxy)benzoic acid] | 0.1 to 1000 |
| Cc1noc(C)c1-c1cnc2c(c1)c(-c1ccc(C(=O)O)cc1OC(F)(F)F)cn2C1(C)CCOC1 (centres unmarked) [P-0383, 4-(5-(3,5-dimethylisoxazol-4-yl)-1-(3-methyltetrahydrofuran-3-yl)-1H-pyrrolo[2,3-b]pyridin-3-yl)-3-(trifluoromethoxy)benzoic acid] | 0.1 to 1000 |
| Cc1noc(C)c1-c1cnc2c(c1)c(-c1ccc(C(=O)O)cc1OC(F)(F)F)cn2-c1cnc(C2CC2)nc1 [P-0384, 4-(1-(2-cyclopropylpyrimidin-5-yl)-5-(3,5-dimethylisoxazol-4-yl)-1H-pyrrolo[2,3-b]pyridin-3-yl)-3-(trifluoromethoxy)benzoic acid] | 0.1 to 1000 |
| Cc1noc(C)c1-c1cnc2c(c1)c(-c1ccc(C(=O)O)cc1OC(F)(F)F)cn2C1(C)CCOCC1 [P-0385, 4-(5-(3,5-dimethylisoxazol-4-yl)-1-(4-methyltetrahydro-2H-pyran-4-yl)-1H-pyrrolo[2,3-b]pyridin-3-yl)-3-(trifluoromethoxy)benzoic acid] | 0.1 to 1000 |
| Cc1noc(C)c1-c1cnc2c(c1)c(-c1c(Cl)cc(C(=O)O)cc1OC(F)(F)F)cn2-c1cnc(C2CC2)nc1 [P-0386, 3-chloro-4-(1-(2-cyclopropylpyrimidin-5-yl)-5-(3,5-dimethylisoxazol-4-yl)-1H-pyrrolo[2,3-b]pyridin-3-yl)-5-(trifluoromethoxy)benzoic acid] | 0.1 to 1000 |
| Cc1noc(C)c1-c1cnc2c(c1)c(-c1ccc(C(=O)O)cc1OCC(F)F)cn2-c1cnc(C2CC2)nc1 [P-0387, 4-(1-(2-cyclopropylpyrimidin-5-yl)-5-(3,5-dimethylisoxazol-4-yl)-1H-pyrrolo[2,3-b]pyridin-3-yl)-3-(2,2-difluoroethoxy)benzoic acid] | 0.1 to 1000 |
